Data reported in US20230293630A1, “Coronavirus T Cell Epitopes and Uses Thereof” (priority 2020, published 2023).

What follows are sequences tested on SARS-CoV-2-specific CD4+ T cells (OX40+CD137+) in PBMC. Settings: not given.
Format: cell-based, human

Point of comparison: RCSFYEDFLEYHDVR, “Frequency of response (%)” value 36%. Against it:
- SGFAAYSRYRIGNYK — lower, 31%
- SELVIGAVILRGHLR — lower, 33%

Point of comparison: SELVIGAVILRGHLR, “Magnitude by # of responding donors” value 141. Against it:
- SGFAAYSRYRIGNYK — higher, 185
- RCSFYEDFLEYHDVR — higher, 174

Point of comparison: SGFAAYSRYRIGNYK, Sum of response 739. Against it:
- RCSFYEDFLEYHDVR — lower, 696
- SELVIGAVILRGHLR — lower, 563

Same assay, conditions: CD4+ T cell epitopes identified by AIM assay; percent of tested donors responding

Point of comparison: NFSQILPDPSKPSKR, “Frequency of response (%)” value 33%. Against it:
- SLLIVNNATNVVIKV — lower, 9%
- VFAQVKQIYKTPPIK — lower, 8%
- SNFRVQPTESIVRFP — lower, 9%
- KKRWQLALSKGVHFV [SEQ ID NO 250] — lower, 18%
- ELDKYFKNHTSPDVD — lower, 7%
- GINASVVNIQKEIDR — lower, 8%
- FTVEKGIYQTSNFRV — lower, 9%
- KNPLLYDANYFLCWH [SEQ ID NO 253] — lower, 7%
- SFIEDLLFNKVTLAD — lower, 17%
- CAQKFNGLTVLPPLL — lower, 9%

Same assay, conditions: CD4+ T cell epitopes identified by AIM assay; share of donors responding

Point of comparison: LPFFSNVTWFHAIHV, “Frequency of response (%)” value 9%. Against it:
- VRIIMRLWLCWKCRS — higher, 14%
- NHTKKWKYPQVNGLT — the same, 9%
- IPFAMQMAYRFNGIG — higher, 18%
- LLEQWNLVIGFLFLT — higher, 13%
- LLLLDRLNQLESKMS [SEQ ID NO 247] — higher, 21%
- RFASVYAWNRKRISN — higher, 27%
- PRPPLNRNYVFTGYR — lower, 8%
- LQPELDSFKEELDKY — lower, 7%
- IQWMVMFTPLVPFWI — lower, 8%
- RPLLESELVIGAVIL — lower, 8%
- AIKLDDKDPNFKDQV — lower, 8%
- GKQGNFKNLREFVFK — the same, 9%
- HKNNKSWMESEFRVY — the same, 9%
- PLIELCVDEAGSKSP — higher, 18%
- YREAACCHLAKALND — lower, 8%
- VNLTTRTQLPPAYTN — lower, 8%
- SFLAHIQWMVMFTPL — lower, 8%
- YLTFYLTNDVSFLAH — higher, 17%
- MKDLSPRWYFYYLGT — higher, 14%
- IKDLPKEITVATSRT — higher, 23%
- RYLALYNKYKYFSGA — higher, 15%
- TPSFKKGAKLLHKPI — lower, 8%
- YADSFVIRGDEVRQI — lower, 8%
- LPNDDTLRVEAFEYY — the same, 9%
- SGHNLAKHCLHVVGP — lower, 8%
- LNQLTGYKKPASREL — lower, 8%
- IAGHHLGRCDIKDLP — higher, 25%
- IRGWIFGTTLDSKTQ — the same, 9%
- SFLGRYMSALNHTKK — the same, 9%
- NTVKSVGKFCLEASF — lower, 8%
- LPQGFSALEPLVDLP — higher, 18%
- LGRCDIKDLPKEITV — higher, 25%
- LLWPVTLACFVLAAV — higher, 17%
- LPPLLTDEMIAQYTS — the same, 9%
- LGASQRVAGDSGFAA — higher, 15%
- VSSQCVNLTTRTQLP — lower, 8%
- LTYTGAIKLDDKDPN — higher, 17%
- FSNSGSDVLYQPPQT — lower, 8%
- LMDLEGKQGNFKNLR — higher, 36%
- IAATRGATVVIGTSK — lower, 6%
- NIDGYFKIYSKHTPI — higher, 45%
- ARDLICAQKFNGLTV — lower, 8%
- RLWLCWKCRSKNPLL — lower, 7%

Same assay, conditions: CD4+ T cell epitopes identified by AIM assay; sum of response per responding donor

Point of comparison: RPLLESELVIGAVIL, “Magnitude by # of responding donors” value 183. Against it:
- VRIIMRLWLCWKCRS — lower, 131
- NHTKKWKYPQVNGLT — lower, 123
- IPFAMQMAYRFNGIG — higher, 187
- LLEQWNLVIGFLFLT — lower, 122
- LLLLDRLNQLESKMS [SEQ ID NO 247] — higher, 581
- NFSQILPDPSKPSKR — higher, 647
- RFASVYAWNRKRISN — higher, 241
- PRPPLNRNYVFTGYR — lower, 101
- LQPELDSFKEELDKY — lower, 173
- IQWMVMFTPLVPFWI — higher, 603
- SLLIVNNATNVVIKV — lower, 164
- VFAQVKQIYKTPPIK — higher, 268
- AIKLDDKDPNFKDQV — higher, 585
- GKQGNFKNLREFVFK — lower, 129
- LPFFSNVTWFHAIHV — lower, 156
- SNFRVQPTESIVRFP — higher, 243
- HKNNKSWMESEFRVY — higher, 572
- PLIELCVDEAGSKSP — lower, 171
- YREAACCHLAKALND — lower, 109
- VNLTTRTQLPPAYTN — lower, 170
- SFLAHIQWMVMFTPL — higher, 554
- KKRWQLALSKGVHFV [SEQ ID NO 250] — lower, 144
- YLTFYLTNDVSFLAH — higher, 358
- ELDKYFKNHTSPDVD — higher, 361
- MKDLSPRWYFYYLGT — higher, 2536
- IKDLPKEITVATSRT — higher, 258
- RYLALYNKYKYFSGA — higher, 708
- TPSFKKGAKLLHKPI — lower, 103
- YADSFVIRGDEVRQI — lower, 160
- LPNDDTLRVEAFEYY — lower, 162
- SGHNLAKHCLHVVGP — lower, 148
- LNQLTGYKKPASREL — lower, 168
- GINASVVNIQKEIDR — higher, 267
- FTVEKGIYQTSNFRV — higher, 1202
- IAGHHLGRCDIKDLP — higher, 522
- IRGWIFGTTLDSKTQ — higher, 327
- SFLGRYMSALNHTKK — higher, 219
- NTVKSVGKFCLEASF — lower, 113
- LPQGFSALEPLVDLP — higher, 418
- LGRCDIKDLPKEITV — higher, 313
- KNPLLYDANYFLCWH [SEQ ID NO 253] — lower, 112
- LLWPVTLACFVLAAV — higher, 260
- LPPLLTDEMIAQYTS — lower, 153
- LGASQRVAGDSGFAA — higher, 491
- VSSQCVNLTTRTQLP — higher, 274
- LTYTGAIKLDDKDPN — higher, 742
- FSNSGSDVLYQPPQT — lower, 149
- LMDLEGKQGNFKNLR — higher, 347
- IAATRGATVVIGTSK — lower, 117
- SFIEDLLFNKVTLAD — higher, 406
- NIDGYFKIYSKHTPI — higher, 295
- ARDLICAQKFNGLTV — higher, 232
- CAQKFNGLTVLPPLL — higher, 741
- RLWLCWKCRSKNPLL — higher, 290

Same assay, conditions: CD4+ T cell epitopes identified by AIM assay; total response

Point of comparison: LQPELDSFKEELDKY, Sum of response 173. Against it:
- VRIIMRLWLCWKCRS — higher, 261
- NHTKKWKYPQVNGLT — lower, 123
- IPFAMQMAYRFNGIG — higher, 373
- LLEQWNLVIGFLFLT — higher, 243
- LLLLDRLNQLESKMS [SEQ ID NO 247] — higher, 1742
- RFASVYAWNRKRISN — higher, 722
- PRPPLNRNYVFTGYR — lower, 101
- IQWMVMFTPLVPFWI — higher, 603
- RPLLESELVIGAVIL — higher, 183
- AIKLDDKDPNFKDQV — higher, 585
- GKQGNFKNLREFVFK — lower, 129
- LPFFSNVTWFHAIHV — lower, 156
- HKNNKSWMESEFRVY — higher, 572
- PLIELCVDEAGSKSP — higher, 341
- YREAACCHLAKALND — lower, 109
- VNLTTRTQLPPAYTN — lower, 170
- SFLAHIQWMVMFTPL — higher, 554
- YLTFYLTNDVSFLAH — higher, 715
- MKDLSPRWYFYYLGT — higher, 5072
- IKDLPKEITVATSRT — higher, 774
- RYLALYNKYKYFSGA — higher, 1415
- TPSFKKGAKLLHKPI — lower, 103
- YADSFVIRGDEVRQI — lower, 160
- LPNDDTLRVEAFEYY — lower, 162
- SGHNLAKHCLHVVGP — lower, 148
- LNQLTGYKKPASREL — lower, 168
- IAGHHLGRCDIKDLP — higher, 1565
- IRGWIFGTTLDSKTQ — higher, 327
- SFLGRYMSALNHTKK — higher, 219
- NTVKSVGKFCLEASF — lower, 113
- LPQGFSALEPLVDLP — higher, 836
- LGRCDIKDLPKEITV — higher, 938
- LLWPVTLACFVLAAV — higher, 520
- LPPLLTDEMIAQYTS — lower, 153
- LGASQRVAGDSGFAA — higher, 981
- VSSQCVNLTTRTQLP — higher, 274
- LTYTGAIKLDDKDPN — higher, 1484
- FSNSGSDVLYQPPQT — lower, 149
- LMDLEGKQGNFKNLR — higher, 1386
- IAATRGATVVIGTSK — lower, 117
- NIDGYFKIYSKHTPI — higher, 1475
- ARDLICAQKFNGLTV — higher, 232
- RLWLCWKCRSKNPLL — higher, 290

Same assay, conditions: CD4+ T cell epitopes identified by AIM assay; total response summed over donors

Point of comparison: VFAQVKQIYKTPPIK, Sum of response 268. Against it:
- NFSQILPDPSKPSKR — higher, 2589
- SLLIVNNATNVVIKV — lower, 164
- SNFRVQPTESIVRFP — lower, 243
- KKRWQLALSKGVHFV [SEQ ID NO 250] — higher, 287
- ELDKYFKNHTSPDVD — higher, 361
- GINASVVNIQKEIDR — lower, 267
- FTVEKGIYQTSNFRV — higher, 1202
- KNPLLYDANYFLCWH [SEQ ID NO 253] — lower, 112
- SFIEDLLFNKVTLAD — higher, 812
- CAQKFNGLTVLPPLL — higher, 741
